Test results published in ChEMBL document CHEMBL4339208, “6-Bromoindolglyoxylamido derivatives as antimicrobial agents and antibiotic enhancers” (Bioorg Med Chem, 2019).
Converted amounts (≈) assume the structure as drawn. The source made the active and inactive calls. The rule behind the calls is not given here.

Experiments:
Staphylococcus aureus [1] = experiment: Antibacterial activity against Staphylococcus aureus ATCC 25923 measured after 18 hrs by broth dilution method; format: functional; details: ATCC 25923, 18 h
[2] = tested on: Staphylococcus intermedius; experiment: Antibacterial activity against Staphylococcus intermedius 1051997 measured after 18 hrs by broth dilution method; format: functional; details: Staphylococcus intermedius, 1051997, 18 h
Escherichia coli = experiment: Antibacterial activity against Escherichia coli ATCC 25922 measured after 18 hrs by broth dilution method; format: functional; details: ATCC 25922, 18 h
Pseudomonas aeruginosa [3] = experiment: Antibacterial activity against Pseudomonas aeruginosa ATCC 27853 measured after 18 hrs by broth dilution method; format: functional; details: ATCC 27853, 18 h
Klebsiella pneumoniae [4] = experiment: Antibacterial activity against Klebsiella pneumoniae ATCC 700603 measured after 18 hrs by resazurin dye based assay; format: functional; details: Klebsiella pneumoniae, 700603, 18 h
Acinetobacter baumannii [5] = experiment: Antibacterial activity against Acinetobacter baumannii ATCC 19606 measured after 18 hrs by resazurin dye based assay; format: functional; details: ATCC 19606 = CIP 70.34 = JCM 6841, 18 h
Candida albicans = experiment: Antifungal activity against Candida albicans ATCC 90028 measured after 36 hrs; format: functional; details: ATCC 90028, 36 h
Cryptococcus neoformans = experiment: Antifungal activity against Cryptococcus neoformans ATCC 208821 measured after 36 hrs by resazurin dye based assay; format: functional; details: ATCC 208821, 36 h
Klebsiella pneumoniae [6] = experiment: Antibacterial activity against Klebsiella pneumoniae ATCC 700603 at 32 ug/ml measured after 18 hrs by resazurin dye based assay; format: functional, organism-based
Acinetobacter baumannii [7] = experiment: Antibacterial activity against Acinetobacter baumannii ATCC 19606 at 32 ug/ml measured after 18 hrs by resazurin dye based assay; format: functional, organism-based; details: ATCC 19606 = CIP 70.34 = JCM 6841
Pseudomonas aeruginosa [8] = experiment: Potentiation of doxycycline-induced antibacterial activity against Pseudomonas aeruginosa ATCC 27853 assessed as concentration required to restore 2 ug/ml doxycycline activity measured after 18 hrs; format: functional
[9] = Cytotoxicity against HEK293 cells measured after 20 hrs by resazurin dye based fluorescence assay; format: cell-based, Homo sapiens; details: human, HEK293 cells
Erythrocyte [10] = experiment: Hemolytic activity against human RBC incubated for 10 mins under shaking condition measured after 1 hr; format: ADME, cell-based
Erythrocyte [11] = experiment: Hemolytic activity against human RBC at 32 ug/ml incubated for 10 mins under shaking condition measured after 1 hr; format: ADME, cell-based
Pseudomonas aeruginosa [12] = experiment: Disruption of membrane integrity in Pseudomonas aeruginosa PAO1 assessed as increase in extracellular ATP level by luciferin-luciferase reagent based luminescence assay; format: functional, organism-based
Pseudomonas aeruginosa [13] = experiment: Disruption of membrane integrity in Pseudomonas aeruginosa PAO1 assessed as decrease in intracellular ATP level at 10 ug/ml by luciferin-luciferase reagent based luminescence assay relative to control; format: functional; design: scale not given: the % may be the effect or the level left
Staphylococcus aureus [14] = experiment: Disruption of membrane integrity in Staphylococcus aureus ATCC 25923 assessed as increase in extracellular ATP level by luciferin-luciferase reagent based luminescence assay; format: functional, organism-based
Pseudomonas aeruginosa [15] = experiment: Induction of membrane depolarization in Pseudomonas aeruginosa PAO1 at 10.4 uM measured after 15 mins by DiSC3(5) dye based spectrofluorometric method; format: functional, organism-based
Staphylococcus aureus [16] = experiment: Induction of membrane depolarization in Staphylococcus aureus ATCC 25923 at 10.4 uM measured after 15 mins by DiSC3(5) dye based spectrofluorometric method; format: functional, organism-based
Staphylococcus aureus [17] = experiment: Induction of membrane depolarization in Staphylococcus aureus ATCC 25923 measured after 15 mins by DiSC3(5) dye based spectrofluorometric method; format: functional, organism-based

With `O=C(NCCCNCCCCNCCCNC(=O)C(=O)c1c[nH]c2cc(Br)ccc12)C(=O)c1c[nH]c2cc(Br)ccc12` the MIC (Staphylococcus aureus [1]) was 6.25 µM (≈ 4.39 µg/mL), the MIC [2] was 3.12 µM (≈ 2.2 µg/mL) and the MIC (Escherichia coli) was 100 µM (≈ 70.2 µg/mL). The MIC (Pseudomonas aeruginosa [3]) was 100 µM (≈ 70.2 µg/mL), the MIC (Klebsiella pneumoniae [4]) was > 34 µM and the MIC (Acinetobacter baumannii [5]) was > 34 µM. For the same molecule, the MIC (Candida albicans) was 17.2 µM (≈ 12.1 µg/mL), the MIC (Cryptococcus neoformans) was 1.1 µM (≈ 0.773 µg/mL) and the Activity (Klebsiella pneumoniae [6]) was “inactive”. For the same molecule, the Activity (Acinetobacter baumannii [7]) was “inactive”, the Activity (Pseudomonas aeruginosa [8]) was 6.25 µM and the CC50 at 20 h [9] was 5.06 µM. For the same molecule, the HC10 (Erythrocyte [10]) was > 34 µM, the Activity (Erythrocyte [11]) was “Non-Toxic” and the Activity (Pseudomonas aeruginosa [12]) was “Dose-dependent effect”. For the same molecule, the Activity (Pseudomonas aeruginosa [13]) was 10%, the Activity (Staphylococcus aureus [14]) was “Dose-dependent effect” and the Activity (Pseudomonas aeruginosa [15]) was “Active”. The Activity (Staphylococcus aureus [16]) was “Active” and the Activity (Staphylococcus aureus [17]) was “Dose-dependent effect”.
